These results are taken from publication PMC9322052, “Synthesis and Biological Activity Screening of Newly Synthesized Trimethoxyphenyl-Based Analogues as Potential Anticancer Agents” (Molecules, 2022).

SMILES strings stand for the structures. Like-named read-outs stand apart in the source and are kept apart here.

In data set [1] the test system is hepatocellular carcinoma HepG2 cell line. The data set is described as follows: MTT cytotoxicity assay, HepG2. It counts as cell-based, human. To be noted: Homo sapiens, mean ± SE. The protocol: (§1) All the newly synthesized analogs were evaluated for their in vitro cytotoxicity against the hepatocellular carcinoma HepG2 cell line. Podo was utilized as a reference control in the current study. […] The N-phenyl triazinone derivative 9 was further investigated for its cytotoxic effects against normal liver cell line HL-7702.
(§2) MTT colorimetric assay was carried out to investigate the impact of the newly synthesized compounds 2–11 on hepatocellular carcinoma (HepG2) and normal liver cell line (HL-7702) cell lines. See Section 3.3.1 in Supplementary Material.
(§3) 3.3.1. Cytotoxic activity evaluation
To measure the cytotoxic activity of the synthesized derivatives 2a-11 in hepatocel-lular carcinoma (HepG2) cell line (ATCC Cat No. HB-8065) as well as normal human liver cell line HL-7702 (ATCC Cat. No. 77402), cell viability assay was assessed using MTT assay method. Cells at density of 1 x 104 were seeded in a 96-well plate at 37 °C for 24 h under 5% CO2. After incubation, the cells were treated with different concentrations of the test compounds 2a-11 and incubated for 24 h, then 20 μl of MTT solution at 5 mg/mL was applied and incubated for 4 h at 37 °C. Dimethyl sulphoxide (DMSO) in volume of 100 µl was added to each well to dissolve the purple formazan that had formed. The color inten-sity of the formazan product, which represents the growth condition of the cells, is quan-tified by using an ELISA plate reader (EXL 800, USA) at 570 nm absorbance. The experi-mental conditions were carried out with at least three replicates, and the experiments were repeated at least three times.
3.3.2. Tubulin inhibitions Assay
(§4) Compounds 9, 10 and 11 were evaluated for their tubulin inhibitory activity levels according to the manufacturer’s instructions using # abcam Human Beta-tubulin simplestep […]
3.3.3. Cell cycle analysis of compound 9
Cell cycle analysis in HepG2 cells was investigated using fluorescent Annexin V-FITC/ PI detection kit (BioVision EZCellTM Cell Cycle Analysis Kit Catalog #K920) by flow cytometry assay. HepG2 cells at a density of 2 × 10^5 per well were harvested and washed twice in PBS. After that, the cells were incubated at 37 °C and 5% CO2. […] Afterward, medium was stained with DNA flu-orochrome PI for 15 min at 37 °C. The samples were immediately analyzed using Facs Calibur flow cytometer (Becton and Dickinson, Heidelberg, Germany).
3.3.4. Apoptosis assay for compound 9
Apoptosis in HepG2 cells was investigated using fluorescent Annexin V-FITC/ PI de-tection kit (BioVision Annexin V-FITC Apoptosis Detection Kit, Catalog #: K101) by flow cy-tometry assay. HepG2 cells at a density of 2 × 10^5 per well were treated with compound 9 at its IC50 (μM) for 48 h, then the cells were harvested and stained with Annexin V-FITC/ PI dye for 15 min in the dark at 37 °C. The samples were immediately analyzed using FACS Calibur flow cytometer (Becton and Dickinson, Heidelberg, Germany).
3.3.5. Measurement of mitochondrial membrane potential (MMP) for compound 9 MMP was measured by FACS analysis using abcam ab113852TMRE Mitochondrial Membrane Potential Assay Kit with DiOC2(3) staining using MitoProbe™ DiOC2(3) Assay Kit for Flow Cytometry (M34150). After treatment with compound 9 at its IC50 concentra-tion, cells were stained with DiOC2(3) dye for 30 min in the incubator, then harvested and washed with PBS. DiOC2(3)-stained cells were represented with Annexin binding buffer and incubated at 37 °C for 15 min. The samples were immediately analyzed using cell […]
3.3.6. Effect on p53, Bax and Bcl-2 p53, Bax and Bcl2 enzyme activities in HepG2 cells were detected in the presence of com-pound 9 at its IC50 concentration (μM). The levels of the tumor suppressor gene p53, apoptotic markers Bax as well as the anti-apoptotic marker Bcl-2 were assessed using p53 ELISA kit, Human Bax ELISA kit and Bcl-2 Elisa kit. […]

The next data set concerns β-tubulin. Put plainly: Tubulin polymerization inhibition (beta-tubulin ELISA in HepG2 cells). In kind it is cell-based, human. On the procedure: The selected candidates were tested at a concentration equal to their IC50 concentration dose value. […] See Section 3.3.2 in Supplementary Material. […] page 18: 3.3. Biological studies 3.3.1. Cytotoxic activity evaluation To measure the cytotoxic activity of the synthesized derivatives 2a-11 in hepatocel- lular carcinoma (HepG2) cell line (ATCC Cat No. HB-8065) as well as normal human liver cell line HL-7702 (ATCC Cat. No. 77402), cell viability assay was assessed using MTT assay method. Cells at density of 1 x 104 were seeded in a 96-well plate at 37 °C for 24 h under 5% CO2. After incubation, the cells were treated with different concentrations of the test compounds 2a-11 and incubated for 24 h, then 20 μl of MTT solution at 5 mg/mL was […] Dimethyl sulphoxide (DMSO) in volume of 100 μl was added to each well to dissolve the purple formazan that had formed. The color […] of the formazan product, which represents the growth condition of the cells, is quan- […] by using an ELISA plate reader (EXL 800, USA) at 570 nm absorbance. The experi- mental conditions were carried out with at least three replicates, and the experiments were repeated at least three times. 3.3.2. Tubulin inhibitions Assay […] according to the manufacturer's instructions using # abcam Human Beta-tubulin […] ELISA Kit ab245722. 3.3.3. Cell cycle analysis of compound 9 Cell cycle analysis in HepG2 cells was investigated using fluorescent Annexin V- FITC/ PI detection kit (BioVision EZCellTM Cell Cycle Analysis Kit Catalog #K920) by flow cytometry assay. […] twice in PBS. After that, the cells were incubated at 37 °C and 5% CO2. […] Apoptosis assay for compound 9 Apoptosis in HepG2 cells was investigated using fluorescent Annexin V-FITC/ PI de- tection kit (BioVision Annexin V-FITC Apoptosis Detection Kit, Catalog #: K101) by flow cy- tometry assay. […] The samples were immediately analyzed using FACS Calibur flow cytometer (Becton and Dickinson, Heidelberg, Germany). 3.3.5. Measurement of mitochondrial membrane potential (MMP) for compound 9 MMP was measured by FACS analysis using abcam ab113852TMRE Mitochondrial Membrane Potential Assay Kit with DiOC2(3) staining using MitoProbeTM DiOC2(3) Assay Kit for Flow Cytometry (M34150). After treatment with compound 9 at its IC50 concentra- tion, cells were stained with DiOC2(3) dye for 30 min in the incubator, then harvested and washed with PBS. […] The samples were immediately analyzed using cell Quest software. […] Effect on p53, Bax and Bcl-2 p53, Bax and Bcl2 enzyme activities in HepG2 cells were detected in the presence of com- pound 9 at its IC50 concentration (μM). The levels of the tumor suppressor gene p53, apoptotic markers Bax as well as the anti-apoptotic marker Bcl-2 were assessed using p53 ELISA kit, Human Bax ELISA kit and Bcl-2 Elisa kit. […]

The next data set concerns eight cancer cell lines. Also noted: method as in PMID 23547728. To be noted: read-out: average IC50 over eight cancer cell lines; cited from earlier work.
The subject of the next data set is A-594 cell line. Also noted: method as in doi:10.1016/j.arabjc.2021.103644. Conditions: read-out: IC50, antiproliferative activity; cited from earlier work.
Another data set relates to EC-109 cell line. Also noted: method as in doi:10.1016/j.arabjc.2021.103644. Conditions: read-out: IC50, antiproliferative activity; cited from earlier work.
The test system of another data set is PC-3 cell line. Also noted: method as in doi:10.1016/j.arabjc.2021.103644. Conditions: read-out: IC50, antiproliferative activity; cited from earlier work.
A further data set concerns HCT-116 cell line. More on the design: method as in doi:10.1016/j.arabjc.2021.103644. To be noted: read-out: IC50, antiproliferative activity; cited from earlier work.
For another data set, the system named is MGC-803 cell line. Also noted: method as in doi:10.1016/j.arabjc.2021.103644. To be noted: read-out: IC50, antiproliferative activity; cited from earlier work.
Data set [2] concerns normal liver cell line HL-7702. Put plainly: MTT cytotoxicity assay, normal liver cells. In kind it is cell-based. Conditions: Homo sapiens, L02, 24 h treatment, mean ± SE. The protocol: as §1, §2, §3
To measure the cytotoxic activity of the synthesized derivatives 2a-11 in hepatocel-lular carcinoma (HepG2) cell line (ATCC Cat No. HB-8065) as well as normal human liver cell line HL-7702 (ATCC Cat. No. 77402), cell viability assay was assessed using MTT assay method. Cells at density of 1 x 104 were seeded in a 96-well plate at 37 °C for 24 h under 5% CO2. […] The color inten-sity of the formazan product, which represents the growth condition of the cells, is quan-tified by using an ELISA plate reader (EXL 800, USA) at 570 nm absorbance. […]
as §4
3.3.5. […] The samples were immediately analyzed using cell […]

`COc1ccc(C2=N/C(=C\c3cc(OC)c(OC)c(OC)c3)C(=O)NN2c2nc(-c3ccccc3)cs2)cc1OC` [Compound 11, (Z)-3-(3,4-Dimethoxyphenyl)-2-(4-Phenylthiazol-2-yl)-5-(3,4,5-Trimethoxybenzylidene)-1,2-Dihydro-1,2,4-Triazin-6(5H)-one]: the melting point lay in the range of 248 to 250 °C. The compound also returned an IC50 in data set [1] (HepG2, 24 h, 24 h treatment) of 3.21 ± 0.22 µM. The “β-tubulin polymerization inhibition percentage” value in the data set with β-tubulin (HepG2 cells, each compound at its IC50 concentration (9 1.38, 10 2.52, 11 3.21, podo 2.08 μM), ELISA) is recorded as 69.95%.
For the compound `COc1cc(C(=O)c2nc(-c3ccccc3)c[nH]2)cc(OC)c1OC` [RABI-112], in the data set on eight cancer cell lines, the IC50 was 14 nM.
In the case of `COc1cc(Nc2nc(Cc3ccc(C(=O)/C=C/c4ccccn4)cc3)nnc2Cl)cc(OC)c1OC` [V], the IC50 in the data set on A-594 cell line was 520 nM; with EC-109 cell line, 780 nM; in the data set with PC-3 cell line, 610 nM; in the data set with HCT-116 cell line it was 430 nM; in the data set with MGC-803 cell line it was 410 nM.
As to `COc1cc([C@@H]2c3cc4c(cc3[C@H](O)[C@H]3COC(=O)[C@H]23)OCO4)cc(OC)c1OC` [podo, podophyllotoxin, reference compound], the IC50 worked out at 2.08 ± 0.04 µM in [1] (HepG2, 24 h treatment) and 18.6 ± 0.58 µM in data set [2]. In addition, the “β-tubulin polymerization inhibition percentage” value with β-tubulin turned out to be 91.32%.
